Values of other authors as cited in US20020040034A1, “Methods for treating allergic asthma using descarboethoxyloratadine” (priority 1997, published 2002).

Key:
allergic bronchospasm = settings: milligram by milligram basis
[1] = system: melanoma and fibrosarcoma tumors

Row | Compound | Inhibition of allergic bronchospasm, potency compared with terfenadine (allergic bronchospasm) | Association with tumor growth [1]
1 | CCOC(=O)N1CCC(=C2c3ccc(Cl)cc3CCc3cccnc32)CC1 [Loratadine] | four times more potent than terfenadine | associated with growth of both melanoma and fibrosarcoma tumors
2 | COc1ccc(CCN2CCC(Nc3nc4ccccc4n3Cc3ccc(F)cc3)CC2)cc1 [astemizole] | – | associated with growth of both melanoma and fibrosarcoma tumors
